Results reported in patent publication US20130150317A1, “COMPOUNDS FOR THE TREATMENT OF RENAL CELL CARCINOMA” (Myrovlytis Technology Ventures Limited, priority 2010, published 2013).
Entries after “also recorded” stand apart in the source; their conditions may differ. Where two headings read alike, the source gives them in different places.

What was measured:
[1] = tested on: FTC-133 cells transfected with empty vector; test: SRB growth inhibition in FTC-133 cells, empty vector; type: cell-based, human; details: for GI50: Homo sapiens; for differential sensitivity in FTC-133 cells with different levels of FLCN expression (in words): SRB assay
Text: (§1) Human renal carcinoma of BHD origin cells UOK-257 (UOK-FLCN^−) and FLCN transfected UOK-257 cells UOK-FLCN^+ (Yang et al Cancer Genet Cytogenet. 2008 Jan. 15; 180(2):100-9) were provided by Dr Marston Linehan and Dr. Laura S Schmidt (Urologic Oncology Branch, Centre for Cancer Research, National Cancer Institute, National Institutes of Health, Bethesda, Md. 20892, USA). UOK-257 is the only RCC cell line that has been derived from a patient with BHD and harbours a germline FLCN frameshift mutation (c.1285dupC) (predicted, in the absence of nonsense mediated mRNA decay, to lead to premature protein truncation (p.His429ProfsX27) (Yang et al., Cancer Genet Cytogenet, 2008 Jan. 15; 180(2):100-9). We are not aware of any sporadic RCC cell lines with homozygous FLCN inactivation. FTC-133 cells were purchased from ECACC (Salisbury, United Kingdom). These cells are a non-RCC cell line derived from human thyroid carcinoma. 786-0 cells were available from the author's lab (Clifford et al., Hum Mol Genet. 2001 May 1; 10(10):1029-38). 786-O is a kidney cancer cell line that harbours an inactivating VHL gene mutation (c.311delG p.G104fs*55). All cell lines were cultured in DMEM with supplement of 10% foetal bovine serum except for FTC-133 cells which were incubated in medium with DMEM and Hens (1:1).
(§2) The sensitivity of the cell lines to drug-induced cell growth inhibition was determined using the sulphorhodamine B assay (SRB) as described by Lu et al., Clin Cancer Res. 2001:7:2114-23. Briefly, adherent exponentially growing cells were seeded into 96-well plates at 3-5×10^3 cells/100 μl/well. […] The absorbance per well was measured at 570 nm on a Victor X3 Multilabel Plate Reader (PerkinElmor, Beaconsfield, United Kingdom).
(§3) A FLCN containing construct was introduced into parental FTC-133 cells and stably transfected cells were selected. SRB growth inhibition assay was carried out in cells transfected with empty vector and low FLCN and high FLCN expression.
as §3

UOK257-FLCN^+ cells = test: SRB growth inhibition assay in UOK257-FLCN^+ cells; type: cell-based, human
Text: as §1
as §2, with “μl/well. After 20-24 h at 37° C., drugs were added at the appropriate drug concentrations to the wells (final DMSO conc. 1%) as indicated in the Results section.” for “μl/well.”
UOK-257 is the only RCC cell line that has been derived from a patient with BHD and harbours a germline FLCN frameshift mutation (c.1285dupC) (predicted, in the absence of nonsense mediated mRNA decay, to lead to premature protein truncation (p.His429ProfsX27) (Yang et al Cancer Genet Cytogenet, 2008 Jan. 15; 180(2):100-9). Both UOK257-FLCN^− and UOK257-FLCN^+ cells were examined for their sensitivities to growth inhibition induced by 15 compounds selected from the COMPARE analysis. Various concentrations of compounds were introduced into the cells 24 hrs after seeding, incubation was continued for 72 hours and growth inhibition was assessed using the suiphorhodamine B (SRB) assay. GI50 values, defined as the concentration of compounds required to inhibit growth by 50%, were then calculated. The ratio of GI50 value from UOK257-FLCN^+ and UOK257-FLCN^− were calculated and used as an indicator for the sensitivity to FLCN mutant cells.

UOK257-FLCN^− cells [2] = details: 4×GI50 mithramycin alone
Procedure: At the end of the time course, media was carefully removed and cells were fixed in 85% ice-cold ethanol. After removal of ethanol, cells were incubated in the dark at 37° C. for 20 minutes in PBS buffers containing 0.1% Triton X-100, 100 mg/mL RNase A and 10 mg/mL Propidium iodide (PI). The 96-well plates were subsequently scanned using the Acumen eX3 cytometer (TTP LabTech).

[3] = tested on: UOK257-FLCN^− and UOK257-FLCN^+ cells; test: CellTiter-Blue cell viability assay in UOK-257 cells with/without FLCN expression; type: cell-based, human; details: 200 nM, 48 hrs
Procedure: (§4) The ability to induce caspase 3/7 activation after exposure to compounds was measured by Caspase-Glo 3/7 Assay (Promega, Southampton, United Kingdom) according to manufacturer's instruction. The cells were seeded and dosed as described in growth inhibition assay. At the end of incubation, 70 μl of medium was removed and 30 μl of assay reagent was added to the remaining medium. Additional one hour incubation with shaking was carried out at room temperature. The resultant luminescent light was measured in a Victor X3 Multilabel Plate Reader (PerkinElmer, Beaconsfield, United Kingdom). Cell viability after compound exposure was determined by CellTiter-Blue Cell Viability Assay (Promega, Southampton, the United Kingdom) according to manufacturer's instruction. At the end of drug treatment, 20 μl of reagent was added to the medium in 96 wells and the cells were incubated for additional 4 hours. The cell viability was measured by fluorescence with a 570 nm excitation and 590 nm emission set in a Victor X3 Multilabel Plate Reader (PerkinElmer, Beaconsfield, United Kingdom).
These were calculated and used as indicators for the sensitivity to mutant FLCN cells. Cells were exposed continuously to the indicated concentrations of drugs for 48 hours. Values are the mean±SD from at least three experiments.

[4] = tested on: caspase3/7 activity in UOK257-FLCN^− and UOK257-FLCN^+ cells; test: Caspase-Glo 3/7 assay in UOK-257 cells with/without FLCN expression; type: cell-based, human
Procedure: as §4
After 48 hrs incubation, with three concentration ranges for each drug, the capase3/7 activity was detected by amount of luminescence for each cell line. The ratio of caspase3/7 activity from UOK257-FLCN^− and UOK257-FLCN^+ were calculated and used as indicators for the ability of the individual compound to induce caspase3/7 activity to FLCN mutant cells.
These ratios were calculated and used as indicators for the sensitivity to mutant FLCN cells.

UOK257-FLCN^− cells [5] = test: SRB growth inhibition assay in UOK257-FLCN^− cells; type: cell-based, human; details: for GI50: Homo sapiens
Text: as §1, §2
GI50 values, defined as the concentration of compounds required to inhibit growth by 50%, were then calculated. The ratio of GI50 value from UOK257-FLCN^+ and UOK257-FLCN^− were calculated and used as an indicator for the sensitivity to FLCN mutant cells.

## CO[C@H](C(=O)[C@@H](O)[C@@H](C)O)C1Cc2cc3cc(OC4CC(OC5CC(O)C(O)C(C)O5)C(O)C(C)O4)c(C)c(O)c3c(O)c2C(=O)[C@H]1OC1CC(OC2CC(OC3CC(C)(O)C(O)C(C)O3)C(O)C(C)O2)C(O)C(C)O1 (stereo partly drawn) [mithramycin, Mithramycin]
[1]; FTC-133, 72 h, read-out: GI50 in FTC-133 cells, empty vector
  GI50: 59.3 ± 8.9 nM
[1]; FTC-133, read-out: GI50 in FTC-133 cells, empty vector
  GI50: 59.3 ± 8.9 nM
[1]
  differential sensitivity in FTC-133 cells with different levels of FLCN expression (in words): no apparent differential mithramycin sensitivity
[1]; listed as Mithramycin
  differential sensitivity in FTC-133 cells with different levels of FLCN expression (in words): does not show genotypic selective growth inhibitory activity
UOK257-FLCN^+ cells; 72 hours continuous exposure, mean ± SE (n), read-out: GI50 nM in UOK-FLCN^+
  GI50: 634 ± 148 nM
UOK257-FLCN^+ cells; Homo sapiens, 72 h, 72 hours continuous exposure, mean ± SE (n), read-out: GI50 nM in UOK-FLCN^+
  GI50: 634 ± 148 nM
UOK257-FLCN^+ cells; Homo sapiens, read-out: GI50 in FLCN-wt UOK257 cells
  GI50: 634 ± 148 nM
UOK257-FLCN^− cells [2]
  lengthening of the S and G2-M time: 100%
[3]
  ratio of cell viability from UOK257-FLCN^+ and UOK257-FLCN^− (cell death): 2 fold
[4]
  induction of caspase 3/7 activity, FLCN-null versus FLCN-wild type cells (in words): preferentially induced caspase 3/7 activity in UOK257 FLCN-null cells in a dose dependent manner; also recorded: Differential ability to induce caspase 3/7 activity
[4]; listed as Mithramycin
  induction of caspase 3/7 activity, FLCN-null versus FLCN-wild type cells (in words): preferentially induces caspase 3/7 activity in FLCN-null cells in a dose dependent manner
UOK257-FLCN^− cells [5]; 72 h, read-out: GI50 nM in UOK-FLCN^−
  GI50: 64.2 ± 7.9 nM
UOK257-FLCN^− cells [5]; 72 h, read-out: GI50 in UOK257-FLCN^− cells, rapamycin combination experiment
  GI50: 69 ± 10 nM
UOK257-FLCN^− cells [5]; read-out: GI50 in FLCN-null UOK257 cells
  GI50: 64.2 ± 7.9 nM
UOK257-FLCN^− cells [5]; ratio>1 = more inhibitory to FLCN^− cells
  GI50 Ratio of UOK-FLCN^+/UOK-FLCN^−: 9.88
